These results are taken from article PMC5795052 (Open Biology, 2018).

The test system of experiment [1] is aVP-induced IP3 production in hVSMC. Put plainly: IP3 production (ELISA) in hVSMC upon aVP stimulation. The class given is cell-based, human. The note with it: TM peptides 10 µM, 30 min at 37°C, then aVP 1 µM, 5 min; n = 4; figure 8c. As for the experimental part: (§1) hVSMCs (primary aortic smooth muscle cells, ATCC PCS-100-012), A7r5 cells (ATCC-CRL-1444) and HEK293T cells (ATCC-CRL-11268) were purchased from American Type Culture Collection. hVSMCs were cultured in vascular basal media (ATCC PCS-100-030) supplemented with the vascular smooth muscle growth kit (ATCC PCS-100-042), containing 100 U ml^−1 penicillin and 100 µg ml^−1 streptomycin. hVSMCs were used between passages 2–5. HEK293T and A7r5 cells were cultured in high-glucose Dulbecco's Modified Eagle's Medium containing 10 mg ml^−1 sodium pyruvate, 2 mM L-glutamine, 10% (vol/vol) FBS, 1× non-essential amino acids, 100 U ml^−1 penicillin and 100 µg ml^−1 streptomycin. The HTLA cell line, a HEK293 cell line stably expressing a tTA-dependent luciferase reporter and a β-arrestin 2–TEV fusion gene were generously provided by the laboratory of Dr Bryan Roth and maintained in high-glucose Dulbecco's Modified Eagle's Medium supplemented with 10% (vol/vol) FBS, 1× non-essential amino acids, 100 U ml^−1 penicillin, 100 µg ml^−1 streptomycin, 50 µg ml^−1 hygromycin B and 2 µg ml^−1 puromycin. All cells were cultured in a humidified environment at 37°C, 5% CO2.
ACKR3 and CXCR4 siRNA gene silencing was performed as described previously. In brief, cells were grown in 2 ml Accell siRNA delivery media per well (Dharmacon) in six-well plates (Nunc). Commercially available Accell ACKR3 and CXCR4 siRNA were reconstituted with 1× siRNA buffer to a stock concentration of 100 µM. Cells were then transfected with 1 µM ACKR3/CXCR4 siRNA and incubated for 72 h at 37°C, 5% CO2. Accell NT-siRNA pool was used as a negative control. After 72 h, cells were assayed for receptor cell surface expression and used for signalling experiments.
IP3 enzyme-linked immunosorbent assays were purchased from LS Bio and performed as per the manufacturer's protocol (LS BIO F10644). In brief, hVSMCs were grown to confluency in six-well dishes (Nunc) and then treated as described in the Results section. Cells were then washed once with cold PBS, 225 µl of cold PBS was added to each well and cells were lysed by ultrasonication. The cell lysate was centrifuged for 10 min at 4°C at 1500g to remove cellular debris. The total protein concentration in the supernatant was determined with the Bio-Rad DC Protein Assay as per the manufacturer's protocol (Bio-Rad 500-0116). Equivalent amounts of total protein were added to the ELISA strips diluted in the provided sample diluent (1 : 5 and 1 : 10). The assay was then completed as per the manufacturer's protocol. Optical densities were read on a Biotek Synergy II microplate reader (absorbance at 450 nm), and IP3 concentrations were extrapolated from the standard curve.

Experiment [2] has as its system ACKR3 : AVPR1A heteromer. Put plainly: PLA signals for ACKR3 : AVPR1A interactions in hVSMC. The class given is cell-based, human. The note with it: 10 µM, 30 min at 37°C; figure 8b; *p < 0.05 versus vehicle. The protocol:
as §1
(§2) PLAs were performed as described in detail previously. In brief, cells were grown and fixed on eight-well chamber slides (Nunc). […]

The test system of experiment [3] is CXCR4 : AVPR1A heteromer. As to the kind of experiment: PLA signals for CXCR4 : AVPR1A interactions in hVSMC. The class given is cell-based, human. The note with it: 10 µM, 30 min at 37°C; figure 8b. As for the experimental part: as §1, §2
The subject of experiment [4] is ACKR3. Put plainly: β-arrestin 2 recruitment assay (PRESTO-Tango) for ACKR3 co-expressed with pcDNA3 or HA-AVPR1A. The note with it: cells co-expressing ACKR3-Tango and AVPR1A, TM peptides 10 µM, 30 min at 37°C, figure 9h; for effect of TM peptides on efficacy of aVP to induce β-arrestin 2 recruitment to ACKR3-Tango: then aVP, versus vehicle. The class given is cell-based, human.
Description: The human AVPR1A cDNA sequence was from the AVPR1A-TANGO plasmid (Addgene, plasmid #66225). The hRLuc cDNA was PCR-amplified from pIRES-Myc-hCXCR4-Rluc, which was generously provided by Dr Michel Bouvier, with primers carrying the AgeI and XbaI sites at either end, respectively, and ligated with the C-terminus of AVPR1A at the corresponding sites. Human CXCR4 and ACKR3 cDNAs were from the CXCR4-TANGO (Addgene, plasmid #66262) and the ACKR3-TANGO (Addgene, plasmid #66265) plasmids. The EYFP cDNA was PCR-amplified from pEYFP with primers harbouring AgeI and XbaI sites and ligated with the C-terminus of ACKR3. All plasmids were confirmed by sequencing.
as §1
The PRESTO-Tango (parallel receptorome expression and screening via transcriptional output, with transcriptional activation following arrestin translocation) assay was performed as recently described. The Tango plasmids were a gift from Dr Bryan Roth (all from Addgene). HTLA cells (2.5 × 10^5 per well) were seeded in a six-well plate and transfected with 1.5 µg of the Tango plasmids using Lipofectamine 3000 (ThermoScientific). The following day, transfected HTLA cells (1 × 10^5 cells per well) were plated onto poly-L-lysine precoated 96-well microplates and allowed to attach to the plate surface for at least 4 h prior to treatment. Proteins used for treatment were prepared in twice the final concentration in culture media, added at a 1 : 1 vol/vol ratio and incubated overnight at 37°C, 5% CO2 in a humidified environment. The following morning, media were removed from cell culture plates and replaced with a 100 µl 1 : 5 mixture of Bright-Glo (Promega) and 1× HBSS, 20 mM HEPES solution. Plates were then incubated at room temperature before measuring luminescence on a Biotek Synergy II plate reader.

Experiment [5] has as its system ACKR3. The note with it: ref [21]; cited from earlier work. The protocol:
The effects of the TM peptide analogues of ACKR3 on aVP-induced recruitment of β-arrestin 2 to ACKR3-Tango in cells co-expressing ACKR3-Tango and AVPR1A are shown in figure 9h.

Take “VVCILWLLAFCVSLPDTYYLDD [TM4, peptide analogue of transmembrane helix 4 (TM4) of ACKR3, described previously [21]]”: in experiment [1], the “effect of TM peptides on aVP-induced IP3 production” value is given as “inhibited aVP-induced IP3 production”. Further, the “effect of TM peptides on PLA signals for AVPR1A : ACKR3 interactions” value in experiment [2] is on record as “reduced PLA signals for AVPR1A : ACKR3 interactions”. Moreover, the “effect of TM peptides on PLA signals for AVPR1A : CXCR4 interactions” value in experiment [3] was “did not increase AVPR1A : CXCR4 interactions”. For the same sequence, in experiment [4], the “effect of TM peptides on efficacy of aVP to induce β-arrestin 2 recruitment to ACKR3-Tango” value (“effect of TM peptides on efficacy of aVP” for short) was “significantly reduced the efficacy of aVP to induce β-arrestin 2 recruitment”, the “inhibition of aVP-induced β-arrestin 2 recruitment to ACKR3-Tango (comparison TM2/TM4)” value is “inhibited aVP-induced β-arrestin 2 recruitment to ACKR3-Tango with comparable efficacy” and the “mode of antagonism of aVP-induced β-arrestin 2 recruitment to ACKR3-Tango” value was “non-competitive antagonists”. Also, the “behaviour in β-arrestin 2 recruitment to ACKR3-Tango upon agonist stimulation” value (“behaviour in β-arrestin 2 recruitment” for short) in experiment [5] is recorded as “behaviour similar to the TM2 peptide, but this effect did not reach statistical significance”.

For the sequence “YILNLAIADLWVVLTIPVWVVDDD [TM2, peptide analogue of transmembrane helix 2 (TM2) of ACKR3, described previously [21]]”, the “effect of TM peptides on aVP-induced IP3 production” value in experiment [1] is reported as “inhibited aVP-induced IP3 production”. Further, the “effect of TM peptides on PLA signals for AVPR1A : ACKR3 interactions” value in experiment [2] is reported as “reduced PLA signals for AVPR1A : ACKR3 interactions”. For the same sequence, the “effect of TM peptides on PLA signals for AVPR1A : CXCR4 interactions” value in experiment [3] is reported as “did not increase AVPR1A : CXCR4 interactions”. For the same sequence, in experiment [4], the “effect of TM peptides on efficacy of aVP” value is on record as “significantly reduced the efficacy of aVP to induce β-arrestin 2 recruitment”, the “inhibition of aVP-induced β-arrestin 2 recruitment to ACKR3-Tango (comparison TM2/TM4)” value is “inhibited aVP-induced β-arrestin 2 recruitment to ACKR3-Tango with comparable efficacy” and the “mode of antagonism of aVP-induced β-arrestin 2 recruitment to ACKR3-Tango” value is “non-competitive antagonists”. Besides, in experiment [5], the “behaviour in β-arrestin 2 recruitment” value is “competitive antagonist”.

Turning to “DDDLHVTQCLSLVHCCVNPVLYSFIN [TM7, peptide analogue of transmembrane helix 7 (TM7) of ACKR3, described previously [21]]”, in experiment [1], the “effect of TM peptides on aVP-induced IP3 production” value is given as “ineffective”. For the same sequence, the “effect of TM peptides on efficacy of aVP” value in experiment [4] was “did not show significant effects”. Further, in experiment [5], the “behaviour in β-arrestin 2 recruitment” value is “inactive”.
